Experimental findings from the NIST ThermoML archive (doi:10.1021/je0342724) are described below.

Numbers after ± are expanded uncertainties.

For series [1] the following is noted: Crystal; DTA.
A short description of series [2]: Molar enthalpy of transition or fusion. The conditions noted are these: Crystal; DSC.

In the case of `Brc1c(Br)c(Br)c(Br)c(Br)c1Br` [hexabromobenzene], the Normal melting temperature in series [1] was determined as 325.6 ± 1.1 °C. The “Molar enthalpy of transition or fusion” value in series [2] stood at 5.88 ± 0.598 kcal/mol.
The matching figures for `Brc1cc(Br)c(Br)cc1Br` [1,2,4,5-tetrabromobenzene]: 181.4 ± 1.1 °C and 5.83 ± 0.598 kcal/mol.
The matching figures for `Brc1ccc(Br)c(Br)c1` [1,2,4-tribromobenzene]: 44 ± 1.1 °C and 4.28 ± 0.43 kcal/mol.
The matching figures for `Brc1ccc(Br)cc1` [1,4-dibromobenzene]: 84.6 ± 1.1 °C and 4.45 ± 0.454 kcal/mol.
